According to patent publication US9433663B2, “Mobilization of hematopoietic stem cells” (Children's Hospital Medical Center, priority 2008, dated 2016):

Experiments:
32D myeloid progenitors = assay: transwell migration of 32D progenitors towards SDF1α; type: cell-based, murine; conditions: dose-dependent manner
From the text: To shed light on potential roles of CASIN in HSPC mobilization, the effects of CASIN on Cdc42-related cellular functions was studied, including adhesion, migration, and F-actin polymerization of progenitor cells in 32D myeloid progenitors. […] SDF-1α stimulation causes a reorganization of F-actin into a cortical ring around the cells. […] Thirdly, to gain further insight into cellular specificity and efficacy of CASIN, and also to rule out possible toxic effects by CASIN, Cdc42-involved BM progenitor cell functions were examined, including proliferation, adhesion, migration, and F-actin polymerization, in Cdc42^+/+ cells in parallel with Cdc42^−/− cells. In line with additional studies in a Cdc42 conditional knockout mouse model as described herein, Cdc42^−/− LDBM cells have increased CFU-forming progenitors compared to those of Cdc42^+/+.

WASP = assay: phosphorylation of WASP in 32D progenitors; type: cell-based, murine; conditions: FIG. 7D
From the text: FIG. 7D. CASIN treatment in 32 progenitors led to dampened phosphorylation of WASP, […].

PAK1, WASP, WAVE, ROCK = assay: Example 7 phosphorylation of downstream effectors by western blot; type: cell-based, murine LDBM and human HCB cells; conditions: HCB and LDBM cells
Experimental: To exclude the inhibitory effect of CASIN on other Rac isoforms, Rho GTPases, and Ras, broader effector pull-down experiments are performed on these possible candidates with gradient doses of CASIN in LDBM and HCB cells as previously described. In addition, CASIN has been indicated as a noncovalent and reversible inhibitor in Xenopus egg extract. To confirm it, reversibility is monitored in this set of effector pull-down experiments. Four treatment groups are divided for both LDBM and HCB cells: (1) Serum starvation 20 h; (2) Serum starvation 20 h+growth factors stimulation; (3) Serum starvation 20 h+CASIN treatment (doses: 1, 2.5, 5, and 10 μM) 3 h+growth factor stimulation; (4) Serum starvation 20 h+CASIN treatment (doses: 1, 2.5, 5, and 10 μM) 3 h+wash the cells, and culture for another 3 h for recovery+growth factors stimulation. […] Bound proteins are analyzed by immunoblotting with respective antibodies (BD Biosciences). Furthermore, changes of downstream targets of Cdc42, Rac, and Rho under the four treatment groups are assessed. Phosphorylation status of PAK1, WASP (effectors of Cdc42), WAVE (effector of Rac), and ROCK (effector of Rho) are monitored by western blots using respective antibodies.

Cdc42WT/WT MEF cells = assay: Example 7 adhesion, migration, actin polymerization in MEF cells; type: cell-based, mouse; conditions: in vitro
Experimental: To further verify the specificity of CASIN on Cdc42 activity inhibition, adhesion, migration, Actin polymerization is evaluated in both Cdc42−/− and Cdc42WT/WT MEF cells under the following five groups: (1) Cdc42WT/WT cells without treatment; (2) Cdc42−/− cells without treatment; (3) Cdc42WT/WT cells treated with CASIN; (4) Cdc42WT/WT cells treated with control medium; (5) Cdc42−/− cells treated with CASIN, in order to verify that CASIN function through inhibiting Cdc42. similarly, activities of the down stream effectors of Cdc42, Rac, and Rho under the five groups are monitored by western blot as above.

Fancc−/− mice = assay: Example 10 HSC/P mobilization in Fancc−/− mice; conditions: mouse, in vivo
Experimental: The effects of CASIN on HSC/P mobilization in Fancc−/− mice are investigated under four groups in parallel with WT mice: (1) Control group; (2) G-CSF group: 2.5 μg G-CSF per mouse, twice a day for 4 d120; (3) CASIN group: 2.5 mg/Kg; (4) combination of CASIN and G-CSF: one injection of CASIN is given 40 h before the end of 4 d G-CSF administration.
Fancc−/− or WT mice are mobilized with regimens corresponding to the four experimental groups. Then PB are harvested by cardiac puncture. Phenotypically, the absolute number and percentage of HSC/Ps in PB after mobilization are determined as those of LSK (Lin− Sca+ c-Kit+) cells by flow cytometry. Functionally, CFU-C assay is performed in triplicate for each mouse by using PB of mice from different experimental groups, and CFU-GM, CFU-GEMM, BFU-E, and CFU-E are distinguished by morphology and using cytokine combinations. Furthermore, the long-term repopulation capacity of the mobilized HSCs is evaluated using a competitive repopulating assay and subsequent secondary transplantation as discussed above.

OCCNC1CCCc2c1[nH]c1ccc(-c3ccccc3)cc21 (stereo not drawn) [CASIN]
migration of 32D progenitor cells towards SDF1α gradient (32D myeloid progenitors): significantly reduced migration | phosphorylation of WASP (WASP): dampened | phosphorylation of PAK1 and WASP (PAK1, WASP, WAVE, ROCK): inhibit | phosphorylation of WAVE and ROCK (PAK1, WASP, WAVE, ROCK): without affecting | MEF cells' ability of adhesion, migration and actin polymerization (Cdc42WT/WT MEF cells): impairs | mobilization of HSC/Ps (LSK cells, progenitor colonies) in Fancc−/− mice (Fancc−/− mice): effective mobilizer
